Experimental data from patent US7048907B2, “Synthesis, compositions and methods for the measurement of the concentration of stable-isotope labeled compounds in life forms and life form excretory products” (BioPhysics Assay Laboratory, Inc., priority 2001, dated 2006).

Assays:
[1] = Stability of chelates in rat serum (CM-Sephadex assay, serum binding); settings: 24 hours in rat serum at room temperature
[2] = Effect of dilution on the stability of Sm-DTPA; type: physicochemical
Method: Sm-DTPA (1 mM) was prepared as described in Example 9. The solution was further diluted with 0.01 M Tris buffer pH 7.51:10, 1:100, 1:1000, and 1:10000 and allowed to stand at room temperature for 24 hours. The four samples were then assayed for stability of the Sm-DTPA complex as described in Example 17.

[3] = Blood depletion of Gd-DTPA in the rat after three sequential administrations (theoretical example); type: in vivo
Method: In this theoretical example, three 0.5 ml samples of Gd-DTPA (0.05 mg/kg) each dissolved in saline (pH 7) are injected sequentially at 0, 20, and 40 minutes into the tail vein of a rat. Samples of blood are obtained at 10, 30 and 60 minutes following each injection and analyzed for Gd by T1 relaxation. […] This example highlights one advantage of using neutron activation over T1 relaxivity to measure pharmacological rates of elimination when using sequential injections (compare Examples 32 and 33).

[4] = demonstrated by properties of the marketed pharmaceutical product; cited from earlier work
[5] = Fraction 1: 0.2 ml sample then 2 ml 0.01M Tris pH 7.5 (eluate)
[6] = Fraction 2: 3 ml 0.01M Tris pH 7.5
[7] = Fraction 3: column and contents (retained)
[8] = Sm-DTPA 0.1 μM, 24 hours room temperature, Fraction 1: 3 ml Tris before sample
[9] = Sm-DTPA 0.1 μM, 24 hours room temperature, Fraction 2: sample then 3 ml Tris (eluate)
[10] = Sm-DTPA 0.1 μM, 24 hours room temperature, Fraction 3: further 3 ml Tris
[11] = Sm-DTPA 0.1 μM, 24 hours room temperature, Fraction 4: column and contents
[12] = Sm-DTPA 1 μM, 24 hours room temperature, Fraction 1: 3 ml Tris before sample
[13] = Sm-DTPA 1 μM, 24 hours room temperature, Fraction 2: sample then 3 ml Tris (eluate)
[14] = Sm-DTPA 1 μM, 24 hours room temperature, Fraction 3: further 3 ml Tris
[15] = Sm-DTPA 1 μM, 24 hours room temperature, Fraction 4: column and contents
[16] = Sm-DTPA 10 μM, 24 hours room temperature, Fraction 1: 3 ml Tris before sample
[17] = Sm-DTPA 10 μM, 24 hours room temperature, Fraction 2: sample then 3 ml Tris (eluate)
[18] = Sm-DTPA 10 μM, 24 hours room temperature, Fraction 3: further 3 ml Tris
[19] = Sm-DTPA 10 μM, 24 hours room temperature, Fraction 4: column and contents
[20] = Sm-DTPA 100 uM, 24 hours room temperature, Fraction 1: 3 ml Tris before sample
[21] = Sm-DTPA 100 uM, 24 hours room temperature, Fraction 2: sample then 3 ml Tris (eluate)
[22] = Sm-DTPA 100 uM, 24 hours room temperature, Fraction 3: further 3 ml Tris
[23] = Sm-DTPA 100 uM, 24 hours room temperature, Fraction 4: column and contents
[24] = Sm-DTPA 1 mM, Fraction 1: 3 ml Tris before sample
[25] = Sm-DTPA 1 mM, Fraction 2: sample then 3 ml Tris (eluate)
[26] = Sm-DTPA 1 mM, Fraction 3: further 3 ml Tris
[27] = Sm-DTPA 1 mM, Fraction 4: column and contents

O=C([O-])CN(CCN(CC(=O)[O-])CC(=O)[O-])CCN(CC(=O)[O-])CC(=O)[O-].[Eu+3] [Eu-DTPA]
% of total [1, 5]: 91 % of total
dpm [1, 5]: 4763 dpm
% of total [1, 6]: 9 % of total
dpm [1, 6]: 499 dpm
% of total [1, 7]: 0 % of total
dpm [1, 7]: 0 dpm

O=C([O-])CN(CCN(CC(=O)[O-])CC(=O)[O-])CCN(CC(=O)[O-])CC(=O)[O-].[Sm+3] [Sm-DTPA]
% of total [2, 8]: 0 % of total
Dpm [2, 8]: 0 dpm
% of total [2, 9]: 99 % of total
Dpm [2, 9]: 192 dpm
% of total [2, 10]: 1 % of total
Dpm [2, 10]: 1 dpm
% of total [2, 11]: 0 % of total
Dpm [2, 11]: 0 dpm
% of total [2, 12]: 0 % of total
Dpm [2, 12]: 0 dpm
% of total [2, 13]: 96 % of total
Dpm [2, 13]: 1386 dpm
% of total [2, 14]: 2 % of total
Dpm [2, 14]: 29 dpm
% of total [2, 15]: 2 % of total
Dpm [2, 15]: 21 dpm
% of total [2, 16]: 0 % of total
Dpm [2, 16]: 0 dpm
% of total [2, 17]: 100 % of total
Dpm [2, 17]: 15685 dpm
% of total [2, 18]: <1 % of total
Dpm [2, 18]: 19 dpm
% of total [2, 19]: 0 % of total
Dpm [2, 19]: 0 dpm
% of total [2, 20]: 0 % of total
Dpm [2, 20]: 0 dpm
% of total [2, 21]: 98 % of total
Dpm [2, 21]: 162208 dpm
% of total [2, 22]: <1 % of total
Dpm [2, 22]: 1308 dpm
% of total [2, 23]: 2 % of total
Dpm [2, 23]: 2121 dpm
% of total [2, 24]: 0 % of total
Dpm [2, 24]: 0 dpm
% of total [2, 25]: 97 % of total
Dpm [2, 25]: 1482087 dpm
% of total [2, 26]: 1 % of total
Dpm [2, 26]: 19089 dpm
% of total [2, 27]: 2 % of total
Dpm [2, 27]: 24257 dpm
stability of the complex on dilution ([2]; concentration limits of 1 mM to 0.1 μM, 24 hours room temperature): stable complex
% eluting from CM Sephadex columns ([2]; concentration range of 0.1 μM to 1 mM): 100%

O=C([O-])CN(CCN(CC(=O)[O-])CC(=O)[O-])CCN(CC(=O)[O-])CC(=O)[O-].[La+3] [La-DTPA]
% of total [1, 5]: 93 % of total
dpm [1, 5]: 82912 dpm
% of total [1, 6]: 7 % of total
dpm [1, 6]: 6167 dpm
% of total [1, 7]: 0 % of total
dpm [1, 7]: 0 dpm

O=C([O-])CN(CCN(CC(=O)[O-])CC(=O)O)CCN(CC(=O)[O-])CC(=O)O.[Gd+3] [Gd-DTPA, Gd-diethylenetriaminepentaacetic acid]
Percent of initial injection, First injection ([3]; 0 min after 1st injection, Gd-DTPA 0.05 mg/kg i.v. at 0, 20, 40 minutes, T1 relaxation): 100% of initial injection
Percent of initial injection, Cumulative total ([3]; 0 min after 1st injection, calculated based upon the first injection): 100% of initial injection
Percent of initial injection, Cumulative total ([3]; 10 min after 1st injection): 81% of initial injection
Percent of initial injection, First injection ([3]; 10 min after 1st injection): 81% of initial injection
Percent of initial injection, Second injection ([3]; 20 min after 1st (0 min after 2nd) injection): 100% of initial injection
Percent of initial injection, Cumulative total ([3]; 20 min after 1st injection): 173% of initial injection
Percent of initial injection, First injection ([3]; 20 min after 1st injection): 73% of initial injection
Percent of initial injection, Second injection ([3]; 30 min after 1st (10 min after 2nd) injection): 81% of initial injection
Percent of initial injection, Cumulative total ([3]; 30 min after 1st injection): 140% of initial injection
Percent of initial injection, First injection ([3]; 30 min after 1st injection): 59% of initial injection
Percent of initial injection, Third injection ([3]; 40 min after 1st (0 min after 3rd) injection): 100% of initial injection
Percent of initial injection, Second injection ([3]; 40 min after 1st (20 min after 2nd) injection): 73% of initial injection
Percent of initial injection, Cumulative total ([3]; 40 min after 1st injection): 220% of initial injection
Percent of initial injection, First injection ([3]; 40 min after 1st injection): 47% of initial injection
Percent of initial injection, Third injection ([3]; 50 min after 1st (10 min after 3rd) injection): 81% of initial injection
Percent of initial injection, Second injection ([3]; 50 min after 1st (30 min after 2nd) injection): 59% of initial injection
Percent of initial injection, Cumulative total ([3]; 50 min after 1st injection): 175% of initial injection
Percent of initial injection, First injection ([3]; 50 min after 1st injection): 35% of initial injection
Percent of initial injection, Third injection ([3]; 60 min after 1st (20 min after 3rd) injection): 73% of initial injection
Percent of initial injection, Second injection ([3]; 60 min after 1st (40 min after 2nd) injection): 47% of initial injection
Percent of initial injection, Cumulative total ([3]; 60 min after 1st injection): 149% of initial injection
Percent of initial injection, First injection ([3]; 60 min after 1st injection): 29% of initial injection
Percent of initial injection, Third injection ([3]; 70 min after 1st (30 min after 3rd) injection): 59% of initial injection
Percent of initial injection, Second injection ([3]; 70 min after 1st (50 min after 2nd) injection): 35% of initial injection
Percent of initial injection, Cumulative total ([3]; 70 min after 1st injection): 120% of initial injection
Percent of initial injection, First injection ([3]; 70 min after 1st injection): 26% of initial injection
Percent of initial injection, Third injection ([3]; 80 min after 1st (40 min after 3rd) injection): 47% of initial injection
Percent of initial injection, Second injection ([3]; 80 min after 1st (60 min after 2nd) injection): 26% of initial injection
Percent of initial injection, Cumulative total ([3]; 80 min after 1st injection): 95% of initial injection
Percent of initial injection, First injection ([3]; 80 min after 1st injection): 22% of initial injection
Percent of initial injection, Third injection ([3]; 100 min after 1st (60 min after 3rd) injection): 35% of initial injection
Percent of initial injection, Second injection ([3]; 100 min after 1st (80 min after 2nd) injection): 22% of initial injection
Percent of initial injection, Cumulative total ([3]; 100 min after 1st injection): 75% of initial injection
Percent of initial injection, First injection ([3]; 100 min after 1st injection): 18% of initial injection
stability to autoclaving [4]: stability of gadolinium-DTPA to autoclaving is demonstrated
